Data reported in publication PMC8111002 (Communications Biology, 2021).
pIC50, pKd: −log10 of the molar value. Square brackets hold non-standard residues; d marks the D form. Ends that are not written are not given here. Peptide text beside a SMILES is read from it. βAla = NCCC(=O)O

How the values were obtained:
[1] = target: B-subunits of Stx1a and Stx2a; details: cited from earlier work
A-subunit = format: binding, Escherichia coli
Stx1a = Stx1a (UniProt P08026+P69178); experiment: cell-based; design: species or system Escherichia coli
Stx2a = Stx2a (Escherichia phage 933W, UniProt P09385+P09386); experiment: cell-based; design: species or system Escherichia coli
Stx1a A-subunit = Stx1a A-subunit (Enterobacteria phage H19B, UniProt P08026); experiment: biochemical; format: binding, Escherichia coli
Stx2a A-subunit = Stx2a A-subunit (Escherichia phage 933W, UniProt P09385); experiment: biochemical; format: binding, Escherichia coli
EHEC = details: mouse, in vivo; cited from earlier work

With “Galα[1-4]-Galβ[1-4]-Glcβ- [free trisaccharide]” as the molecule, how does the Kd [1] read?
Its Kd is “mM order”.

With ARRRRA as the molecule, how does the “inhibition of the binding between MMβA-mono and the A-subunit” value (from here on “inhibition”) (A-subunit) read?
Its value is “efficiently inhibited”.

Which results are given for `CSCC[C@H](NC(=O)[C@H](C)NC(=O)[C@@H](N)CCSC)C(=O)N[C@@H](CCSC)C(=O)NCCC(=O)N[C@@H](CCCNC(=N)N)C(=O)N[C@@H](CCCNC(=N)N)C(=O)N[C@@H](CCCNC(=N)N)C(=O)N[C@@H](CCCNC(=N)N)C(=O)N[C@@H](C)C(N)=O` [MMβA-mono] (H-MAMM[βAla]RRRRA-NH2)?
pIC50 (Stx1a): 4.23; pIC50 (Stx2a): 5.02; pKd (Stx1a A-subunit): 7.49; pKd (Stx2a A-subunit): 7.30

For MMARRRR [MMA-tet], which “inhibitory effects against the lethality in EHEC infected mice” value (EHEC) is on record?
Its value is “potent inhibitory effects”.

For Arg-Arg-Arg-Arg (RRRR), which “inhibition” value (A-subunit) is on record?
Its value is “efficiently inhibited”.

For Arg-Arg-Arg-Arg-Ala (RRRRA), which “inhibition” value (A-subunit) is on record?
The value was “efficiently inhibited”.
